As usually defined, the melting point is the temperature of the solid-liquid transition. For orientation: IC50 means the midpoint of a concentration-inhibition curve. A high value points to weaker potency in that assay.

One series concerns the target T1, Axl (Homo sapiens, UniProt P30530).
T1 construct: endogenous in cells; host or cells: HeLa cells
T1 sequence (P30530 26-894): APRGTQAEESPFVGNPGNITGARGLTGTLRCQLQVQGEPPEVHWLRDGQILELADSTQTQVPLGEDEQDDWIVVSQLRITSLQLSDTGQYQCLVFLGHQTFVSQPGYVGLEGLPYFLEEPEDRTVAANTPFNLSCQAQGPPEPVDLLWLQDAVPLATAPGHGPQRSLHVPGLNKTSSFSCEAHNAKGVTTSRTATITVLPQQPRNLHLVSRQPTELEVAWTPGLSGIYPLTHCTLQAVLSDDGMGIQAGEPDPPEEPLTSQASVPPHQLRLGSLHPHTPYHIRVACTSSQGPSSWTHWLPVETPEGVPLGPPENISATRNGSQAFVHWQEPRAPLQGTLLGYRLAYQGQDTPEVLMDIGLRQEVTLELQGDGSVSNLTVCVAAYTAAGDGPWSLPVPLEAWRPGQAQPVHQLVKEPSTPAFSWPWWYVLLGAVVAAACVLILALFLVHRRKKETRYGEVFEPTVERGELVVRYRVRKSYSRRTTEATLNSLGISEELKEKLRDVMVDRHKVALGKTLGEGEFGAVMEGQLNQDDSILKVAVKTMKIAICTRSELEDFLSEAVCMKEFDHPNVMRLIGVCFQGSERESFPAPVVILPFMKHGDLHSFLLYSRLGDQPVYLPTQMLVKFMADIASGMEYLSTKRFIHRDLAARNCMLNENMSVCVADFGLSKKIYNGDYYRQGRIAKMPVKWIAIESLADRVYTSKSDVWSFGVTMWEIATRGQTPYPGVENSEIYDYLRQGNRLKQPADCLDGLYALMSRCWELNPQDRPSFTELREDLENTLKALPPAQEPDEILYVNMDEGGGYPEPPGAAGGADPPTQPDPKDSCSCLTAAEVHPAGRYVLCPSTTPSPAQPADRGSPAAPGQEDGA
The series can be described thus: Phospho-Akt in-cell Western assay (inhibition of Axl activity). It counts as cell-based. In a few lines: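 HeLa cells on poly-L-lysine, starved 24 h in 0.5% FCS DMEM with Axl/Fc 500 ng/mL, pre-treated with compound 1 h at 37° C. Axl stimulated 5 min by anti-Axl/anti-mouse antibody cross-linking. Fixed cells probed with anti-phospho-Akt and HRP secondary, chemiluminescence read.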

The mark [1] stands for this setting: Table 3, Hela cells, Axl antibody cross-linking stimulation, phospho-Akt chemiluminescence.
The mark [2] stands for this setting: inhibition of Axl activity, phospho-Akt in-cell Western assay, Table 1.
The mark [3] stands for this setting: Table 7, Hela cells, Axl antibody cross-linking stimulation, phospho-Akt chemiluminescence.
The mark [4] stands for this setting: Table 2, Hela cells, Axl antibody cross-linking stimulation, phospho-Akt chemiluminescence.
Where [5] appears, read: inhibition of Axl activity, Table 1.

`Cc1ccc(C(=O)n2nc(Nc3cccc(OCC#N)c3)nc2N)cc1` [(Ia-5), 5-amino-3-[3-(cyanomethoxy)phenylamino]-1-(4-(methyl)phenyl)carbonyl-1H-1,2,4-triazole] showed a melting point of 236 to 241 °C.
As to `Nc1nc(Nc2ccc(OCCN3CCCC3)cc2)nn1C(=O)c1ccc2nc[nH]c2c1` [compound #25, 5-Amino-1-(benzimidazol-6-yl)carbonyl-3-[4-[2-(pyrrolidin-1-yl)ethoxy]phenylamino]-1H-1,2,4-triazole], the half-inhibitory concentration (IC50) on Axl (setting [1]) lay within 1 to 10 µM.
Take `CC(C)(C)OC(=O)NCc1ccc(C(=O)n2nc(Nc3ccc(OCCN4CCCC4)cc3)nc2N)cc1` [compound 278, 5-amino-1-[4-((tert-butoxycarbonyl)aminomethyl)phenyl]carbonyl-3-[4-[2-(pyrrolidin-1-yl)ethoxy]phenylamino]-1H-1,2,4-triazole]: the IC50 on Axl (setting [2]) was < 1 µM.
The compound `CC(=O)N(C)c1ccc(Nc2nc(N)n(C(=O)Nc3ccc4c(c3)OCO4)n2)cc1` [compound 175, 3-[4-(acetyl(methyl)amino)phenyl]amino-5-amino-N-(1,3-benzodioxol-5-yl)-1H-1,2,4-triazole-1-carboxamide] registered an IC50 on Axl (setting [3]) of 1 to 10 µM.
With `Nc1nc(Nc2ccc3c(c2)OCCO3)n(C(=O)c2cccc(OCCC3OCCO3)c2)n1` [compound 209], the 50% inhibitory concentration (IC50) against Axl (setting [4]) was > 20 µM.
On to `Nc1nc(Nc2ccc3c(c2)OCCO3)nn1C(=O)c1ccc(C(F)(F)F)cc1` [compound 244, 5-amino-3-(1,4-benzodioxan-6-yl)amino-1-[(4-trifluoromethyl)phenyl]carbonyl-1H-1,2,4-triazole], for which, on Axl (setting [5]), the IC50 is > 20 µM.
`Nc1nc(Nc2ccc(OCCN3CCCCC3)cc2)nn1C(=O)NC1CCCC1` [compound 45, 5-amino-N-cyclopentyl-3-[4-[2-(piperidin-1-yl)ethoxy]phenylamino]-1H-1,2,4-triazole-1-carboxamide] showed a concentration for half-maximal inhibition (IC50) against Axl (setting [3]) of 1 to 10 µM.
With `COc1cc(NC(=O)n2nc(Nc3ccc(OCCN4CCCCC4)cc3)nc2N)cc(OC)c1` [compound 33, 5-amino-N-(3,5-(dimethoxy)phenyl)-3-[4-[2-(piperidin-1-yl)ethoxy]phenylamino]-1H-1,2,4-triazole-1-carboxamide], the half-inhibitory concentration (IC50) on Axl (setting [3]) was < 1 µM.
Regarding `CN(C)c1cccc(C(=O)n2nc(Nc3ccc(OCCCN4CCCC4)cc3)nc2N)c1` [compound #20, 5-Amino-1-(3-(dimethylamino)phenyl)carbonyl-3-[4-[3-(pyrrolidin-1-yl)propoxy]phenylamino]-1H-1,2,4-triazole], the half-inhibitory concentration (IC50) on Axl (setting [2]) is < 1 µM.
The compound `Cc1ccc(C(=O)n2nc(Nc3ccc4c(c3)OCCO4)nc2N)cc1` [compound 104, 5-amino-3-(1,4-benzodioxan-6-yl)amino-1-(4-(methyl)phenyl)carbonyl-1H-1,2,4-triazole] returned an IC50 against Axl (setting [5]) of 1 to 10 µM.
For `CC(C)c1ccc(C(=O)n2nc(N)nc2Nc2ccc3c(c2)OCCO3)cc1` [compound 233, 3-amino-5-(1,4-benzodioxan-6-yl)amino-1-(4-iso-propylphenyl)carbonyl-1H-1,2,4-triazole], the IC50 on Axl (setting [4]) is > 20 µM.
On to `CC(C)Oc1ccc(C(=O)n2nc(N)nc2NC2C3C=CC(C3)C2C(N)=O)cc1` (stereo not drawn) [compound 353, 3-amino-1-(4-(iso-propoxy)phenyl)carbonyl-5-[(3-(aminocarbonyl)bicyclo[2.2.1]hept-5-en-2-yl)amino]-1H-1,2,4-triazole], for which, on Axl (Table 6, Hela cells, Axl antibody cross-linking stimulation, phospho-Akt chemiluminescence), the concentration for half-maximal inhibition (IC50) was > 20 µM.
Turning to `CC(C)(C)OC(=O)n1nc(Nc2ccc(N3CCCCC3)cc2)nc1N` [compound 201, 5-amino-3-[4-(piperidin-1-yl)phenylamino]-1-(tert-butoxycarbonyl)-1H-1,2,4-triazole], the half-maximal inhibitory concentration (IC50) at Axl (setting [3]) was > 20 µM.
Compound `CC(C)Oc1cncc(C(=O)n2nc(Nc3ccc(OCCN4CCOCC4)cc3)nc2N)c1` [compound 171, 5-amino-1-(3-(iso-propoxy)pyridin-5-yl)carbonyl-3-[4-[2-(morpholin-4-yl)ethoxy]phenylamino]-1H-1,2,4-triazole] had a concentration for half-maximal inhibition (IC50) at Axl (setting [1]) of 1 to 10 µM.
Turning to `CC(C)Oc1ccc(C(=O)n2nc(Nc3ccc(OCCN4CCSCC4)cc3)nc2N)cc1` [compound 60], the IC50 on Axl (setting [5]) is < 1 µM.

(Values after patent US8389557B2, “Triazole derivatives useful as Axl inhibitors” (Rigel Pharmaceuticals, Inc., priority 2005, dated 2013).)
